From patent publication US20260347335A1, “PESTICIDALLY ACTIVE CYCLIC AMINE COMPOUNDS” (SYNGENTA CROP PROTECTION AG, priority 2022, published 2026)

The compounds below were run on Tetranychus urticae (Two-Spotted Spider Mite) (assay: Example B1: Tetranychus urticae (Two-Spotted Spider Mite): Feeding/Contact Activity). Settings: foliar, 192 h, application rate of 200 ppm, 8 days after infestation, bean leaf discs on agar, mites of mixed ages, read-out: mortality on mixed population (mobile stages).
Assay type: in vivo
Method: Example B1: Tetranychus urticae (Two-Spotted Spider Mite): Feeding/Contact Activity
Bean leaf discs on agar in 24-well microtiter plates were sprayed with aqueous test solutions prepared from 10,000 ppm DMSO stock solutions. After drying the leaf discs were infested with a mite population of mixed ages. The samples were assessed for mortality on mixed population (mobile stages) 8 days after infestation.

Row | SMILES | mortality at 200 ppm [%]
1 | CC(=O)NC1(C2CCN(C(=O)c3cc(C#N)c(OCc4ccc5c(c4)OC(F)(F)O5)nc3C(F)F)CC2)CC1 [Compound P1.6, N-[1-[1-[5-cyano-6-[(2,2-difluoro-1,3-benzodioxol-5-yl)methoxy]-2-(difluoromethyl)pyridine-3-carbonyl]-4-piperidyl]cyclopropyl]acetamide] | ≥ 80
2 | CC(C)(NS(C)(=O)=O)C1CCN(C(=O)c2cc(C#N)c(OCc3ccc4c(c3)OC(F)(F)O4)nc2C(F)F)CC1 [Compound P1.1, N-[1-[1-[5-cyano-6-[(2,2-difluoro-1,3-benzodioxol-5-yl)methoxy]-2-(difluoromethyl)pyridine-3-carbonyl]-4-piperidyl]-1-methyl-ethyl]methanesulfonamide] | ≥ 80
3 | CC(=O)NC1(C2CCN(C(=O)c3cc(C#N)c(OCc4cc(Cl)ccc4F)nc3C(F)F)CC2)CC1 [Compound P1.18, N-[1-[1-[6-[(5-chloro-2-fluoro-phenyl)methoxy]-5-cyano-2-(difluoromethyl)pyridine-3-carbonyl]-4-piperidyl]cyclopropyl]acetamide] | ≥ 80
